In publication PMC7993375, “Discovery of novel quinoline-based analogues of combretastatin A-4 as tubulin polymerisation inhibitors with apoptosis inducing activity and potent anticancer effect” (Journal of Enzyme Inhibition and Medicinal Chemistry, 2021):

Key:
[1] = system: HL-60; experiment: MTT cell viability assay, HL-60 leukaemia cells; assay type: cell-based; conditions: Homo sapiens, 72 h, read-out: IC50 value, HL-60
Experimental: (§1) The four human tumour cell lines MCF-7, HCT-116, HL-60 and HeLa used in this study were obtained from the VACSERA (Giza, Egypt) cell culture unit that were originally acquired from ATCC (Manassas, VA, USA). All the human tumour cell lines were cultured in Dulbecco’s Modified Eagle’s Medium (DMEM) with 10% foetal bovine serum, 2 mM L-glutamine and 100 µg/mL penicillin/streptomycin. Cells were maintained at 37 °C in 5% CO2 in a humidified incubator. All cells were sub-cultured 3 times/week by trypsinisation using TrypLE Express (1X).
(§2) The quinoline compounds were evaluated for antiproliferative effect using the MTT viability assay of four cancer cell lines (MCF-7, HCT-116, HL-60 and HeLa) and normal breast cells MCF-10A to calculate the relative IC50 values for each compound. Cells were seeded in triplicate in 96-well plates at a density of 10 × 10^3 cells/ml in a total volume of 200 µl per well. 0.1% of DMSO was used as a vehicle control. Following, the cells were treated with 2 µl test compound (from stock solutions in ethanol) to furnish the concentration range of study, 1 nM to 50 µM, and re-incubated for a further 72 h. The culture medium was then removed, and the cells washed with 100 µL phosphate buffered saline (PBS) and 50 µL MTT added, to reach a final concentration of 1 mg/mL. Cells were incubated for 2 h in darkness at 37 °C. Solubilisation was begun through the addition of […] DMSO, and the cells maintained at room temperature in darkness for 20 min to ensure thorough colour diffusion before reading the absorbance. Plates were incubated for 72 h at 37 °C + 5% CO2. The MTT (5 mg/mL in PBS) was added and incubated for another 4 h, and the optical density was detected with a microplate reader at 570 nm. Results were expressed as percentage viability relative to vehicle control (100%). Dose response curves were plotted and IC50 values (concentration of drug resulting in 50% reduction in cell survival) were obtained using the commercial software package Prism (GraphPad Software, Inc., La Jolla, CA, USA). All the experiments were repeated in at least three independent experiments.

[2] = system: MCF-7; experiment: MTT cell viability assay, MCF-7 breast adenocarcinoma cells; assay type: cell-based; conditions: Homo sapiens, MCF7, 72 h, read-out: IC50 value, MCF-7
Experimental: as §1, §2

[3] = system: HCT-116; experiment: MTT cell viability assay, HCT-116 colorectal carcinoma cells; assay type: cell-based; conditions: Homo sapiens, 72 h
Experimental: as §1, §2

[4] = system: HeLa; experiment: MTT cell viability assay, HeLa cervical adenocarcinoma cells; assay type: cell-based; conditions: Homo sapiens, 72 h
Experimental: as §1, §2

[5] = system: bovine brain tubulin; experiment: Tubulin polymerisation assay; assay type: biochemical; conditions: for IC50: Tubulin was at 10 µM, read-out: Tubulin assembly IC50 (inhibition of tubulin polymerisation)
Experimental: The assembly of purified bovine tubulin was monitored using a kit, BK006, purchased from Cytoskeleton Inc., (Denver, CO, USA). The assay was carried out in accordance with the manufacturer’s instructions using the standard assay conditions. Briefly, purified ([…]) in a buffer consisting of 80 mM PIPES (pH 6.9), 0.5 mM EGTA, 2 mM MgCl2, 1 mM GTP and 10% glycerol was incubated at 37 °C in the presence of either vehicle (2% (v/v) ddH2O), CA-4, or the quinoline compounds. Light is scattered proportionally to the concentration of polymerised microtubules in the assay. Therefore, tubulin assembly was monitored turbidimetrically at 340 nm in a Spectramax 340 PC spectrophotometer (Molecular Devices, Sunnyvale, CA, USA). The concentration that inhibits tubulin polymerisation by 50% (IC50) was determined using area under the curve (AUC). The AUC of the untreated controls were considered as 100% polymerisation. The IC50 value for each compound was computed using GraphPad Prism Software.

[6] = system: MCF-7, HL-60, HCT-116 and HeLa; experiment: MTT cell viability assay, statements over all four cancer cell lines; assay type: cell-based, human
Experimental: as §1, §2

COc1cc(C2=NC(=Cc3cc4ccccc4nc3OC)C(=O)O2)cc(OC)c1OC [Compound 12a, 4-[(2-Methoxyquinolin-3-yl)methylene]-2–(3,4,5-trimethoxyphenyl)oxazol-5(4H)-one]
IC50 [1]: 3309 ± 22 nM | IC50 [2]: 1710 ± 40 nM | IC50 [3]: 2010 ± 80 nM | IC50 [4]: 2110 ± 34 nM | fold less active than CA-4 (tubulin assembly) [5]: 6 fold | IC50 [5]: 14000 nM | melting point: 215 to 217 °C

COc1ccc2cc(C=C3N=C(c4cc(OC)c(OC)c(OC)c4)NC3=O)c(OC)nc2c1 [Compound 13f, 5-[(2,7-Dimethoxyquinolin-3-yl)methylene]-2–(3,4,5-trimethoxyphenyl)-3,5-dihydro-4H-imidazol-4-one]
IC50 [1]: 210 ± 98 nM | IC50 [2]: 92 ± 6.2 nM | IC50 [3]: 187 ± 9 nM | IC50 [4]: 101 ± 90 nM | melting point: 241 to 243 °C

COc1cc(C2=NC(=Cc3cc4cccc(C)c4nc3OC)C(=O)O2)cc(OC)c1OC [Compound 12d, 4-[(2-Methoxy-8-methylquinolin-3-yl)methylene]-2–(3,4,5-trimethoxyphenyl) oxazol-5(4H)-one]
IC50 [1]: 268 ± 93 nM | IC50 [2]: 154 ± 71 nM | IC50 [3]: 191 ± 1 nM | IC50 [4]: 153 ± 83 nM | melting point: 236 to 238 °C

COc1ccc2cc(C=C3N=C(c4cc(OC)c(OC)c(OC)c4)OC3=O)c(OC)nc2c1 [Compound 12f, 4-[(2,7-Dimethoxyquinolin-3-yl)methylene]-2–(3,4,5-trimethoxyphenyl)oxazol-5(4H)-one]
IC50 [1]: 352 ± 21 nM | IC50 [2]: 52 ± 2.1 nM | IC50 [3]: 66 ± 5 nM | IC50 [4]: 138 ± 26 nM | melting point: 221 to 223 °C

COc1cc(C2=NC(=Cc3cc4ccc(OC(C)C)cc4nc3OC)C(=O)N2)cc(OC)c1OC [Compound 13g, 5-((7-Isopropoxy-2-methoxyquinolin-3-yl)methylene)-2–(3,4,5-trimethoxyphenyl)-3,5-dihydro-4H-imidazol-4-one]
IC50 [1]: 5110 ± 410 nM | IC50 [2]: 5560 ± 133 nM | IC50 [3]: 1620 ± 950 nM | IC50 [4]: 4440 ± 600 nM | melting point: 238 to 240 °C

COc1ccc2nc(OC)c(C=C3N=C(c4cc(OC)c(OC)c(OC)c4)NC3=O)cc2c1 [Compound 13e, 5-[(2,6-Dimethoxyquinolin-3-yl)methylene]-2–(3,4,5-trimethoxyphenyl)-3,5-dihydro-4H-imidazol-4-one]
IC50 [1]: 272 ± 50 nM | IC50 [2]: 42 ± 2.5 nM | IC50 [3]: 85 ± 3 nM | IC50 [4]: 62 ± 3 nM | IC50 [5]: 1480 nM | melting point: 253 to 255 °C

COc1cc(C2=NC(=Cc3cc4cc(C)ccc4nc3OC)C(=O)O2)cc(OC)c1OC [Compound 12b, 4-[(2-Methoxy-6-methylquinolin-3-yl)methylene]-2–(3,4,5-trimethoxyphenyl) oxazol-5(4H)-one]
IC50 [1]: 197 ± 41 nM | IC50 [2]: 132 ± 13 nM | IC50 [3]: 184 ± 7 nM | IC50 [4]: 117 ± 85 nM | melting point: 218 to 220 °C

COc1cc(C2=NC(=Cc3cc4ccc(OC(C)C)cc4nc3OC)C(=O)O2)cc(OC)c1OC [Compound 12g, 4-[(7-Isopropoxy-2-methoxyquinolin-3-yl)methylene]-2–(3,4,5-trimethoxyphenyl)oxazol-5(4H)-one]
IC50 [1]: 1820 ± 640 nM | IC50 [2]: 1510 ± 220 nM | IC50 [3]: 7880 ± 300 nM | IC50 [4]: 1750 ± 500 nM | fold less active than CA-4 (tubulin assembly) [5]: 4 fold | IC50 [5]: 8230 nM | melting point: 227 to 229 °C

COc1cc(C2=NC(=Cc3cc4ccc(OCc5ccccc5)cc4nc3OC)C(=O)O2)cc(OC)c1OC [Compound 12h, 4-[(7-(Benzyloxy)-2-methoxyquinolin-3-yl)methylene]-2–(3,4,5-trimethoxyphenyl)oxazol-5(4H)-one]
IC50 [1]: 4660 ± 260 nM | IC50 [2]: 1930 ± 612 nM | IC50 [3]: 1560 ± 720 nM | IC50 [4]: 1050 ± 840 nM | melting point: 247 to 249 °C

COc1cc(C2=NC(=Cc3cc4ccccc4nc3OC)C(=O)N2)cc(OC)c1OC [Compound 13a, 5-[(2-Methoxyquinolin-3-yl)methylene]-2–(3,4,5-trimethoxyphenyl)-3,5-dihydro-4H-imidazol-4-one]
IC50 [1]: 1560 ± 55 nM | IC50 [2]: 1030 ± 55 nM | IC50 [3]: 8210 ± 7.7 nM | IC50 [4]: 1410 ± 96 nM | IC50 ([6]; Homo sapiens): > 1000 nM | melting point: 230 to 232 °C

COc1cc(C2=NC(=Cc3cc4cc(C)ccc4nc3OC)C(=O)N2)cc(OC)c1OC [Compound 13b, 5-[(2-Methoxy-6-methylquinolin-3-yl)methylene]-2–(3,4,5-trimethoxyphenyl)-3,5-dihydro-4H-imidazol-4-one]
IC50 [1]: 240 ± 12 nM | IC50 [2]: 63 ± 1.1 nM | IC50 [3]: 173 ± 25 nM | IC50 [4]: 188 ± 13 nM | IC50 over all four cancer cell lines [6]: submicromolar | melting point: 223 to 225 °C

COc1cc(C2=NC(=Cc3cc4cccc(C)c4nc3OC)C(=O)N2)cc(OC)c1OC [Compound 13d, 5-[(2-Methoxy-8-methylquinolin-3-yl)methylene]-2–(3,4,5-trimethoxyphenyl)-3,5-dihydro-4H-imidazol-4-one]
IC50 [1]: 96 ± 6 nM | IC50 [2]: 137 ± 23 nM | IC50 [3]: 109 ± 11 nM | IC50 [4]: 126 ± 44 nM | IC50 over all four cancer cell lines [6]: submicromolar | melting point: 233 to 235 °C

COc1cc(C2=NC(=Cc3cc4ccc(OCc5ccccc5)cc4nc3OC)C(=O)N2)cc(OC)c1OC [Compound 13h, 5-[(7-(Benzyloxy)-2-methoxyquinolin-3-yl)methylene]-2–(3,4,5-trimethoxyphenyl)-3,5-dihydro-4H-imidazol-4-one]
IC50 [1]: 4930 ± 260 nM | IC50 [2]: 1700 ± 821 nM | IC50 [3]: 2610 ± 430 nM | IC50 [4]: 2070 ± 390 nM | melting point: 259 to 261 °C

COc1ccc2nc(OC)c(/C=C3\N=C(c4cc(OC)c(OC)c(OC)c4)OC3=O)cc2c1 [Compound 12e]
IC50 [1]: 68 ± 34 nM | IC50 [2]: 56 ± 27 nM | IC50 [3]: 31 ± 1 nM | IC50 [4]: 10 ± 4 nM | IC50 [5]: 2260 nM | melting point: 242 to 244 °C

COc1cc(C2=NC(=Cc3cc4ccc(C)cc4nc3OC)C(=O)N2)cc(OC)c1OC [Compound 13c, 5-[(2-Methoxy-7-methylquinolin-3-yl)methylene]-2–(3,4,5-trimethoxyphenyl)-3,5-dihydro-4H-imidazol-4-one]
IC50 [1]: 661 ± 26 nM | IC50 [2]: 223 ± 56 nM | IC50 [3]: 284 ± 83 nM | IC50 [4]: 733 ± 91 nM | fold less active than 12c (tubulin polymerisation) [5]: 16 fold | IC50 [5]: 20300 nM | IC50 over all four cancer cell lines [6]: submicromolar | melting point: 236 to 238 °C
